Source: patent publication US20150342954A1, “2-BENZYL, 3-(PYRIMIDIN-2-YL) SUBSTITUTED PYRAZOLES USEFUL AS SGC STIMULATORS” (IRONWOOD PHARMACEUTICALS, INC., priority 2011, published 2015)
Read-outs that look alike come from different tables or passages of the source.

Target: T1, soluble guanylate cyclase (sGC) (Homo sapiens, UniProt Q02108+Q02153)
T1 construct: endogenously expressing soluble guanylate cyclase (sGC); endogenous in cells; host or cells: HEK293
T1 sequence (Q02153 1-619): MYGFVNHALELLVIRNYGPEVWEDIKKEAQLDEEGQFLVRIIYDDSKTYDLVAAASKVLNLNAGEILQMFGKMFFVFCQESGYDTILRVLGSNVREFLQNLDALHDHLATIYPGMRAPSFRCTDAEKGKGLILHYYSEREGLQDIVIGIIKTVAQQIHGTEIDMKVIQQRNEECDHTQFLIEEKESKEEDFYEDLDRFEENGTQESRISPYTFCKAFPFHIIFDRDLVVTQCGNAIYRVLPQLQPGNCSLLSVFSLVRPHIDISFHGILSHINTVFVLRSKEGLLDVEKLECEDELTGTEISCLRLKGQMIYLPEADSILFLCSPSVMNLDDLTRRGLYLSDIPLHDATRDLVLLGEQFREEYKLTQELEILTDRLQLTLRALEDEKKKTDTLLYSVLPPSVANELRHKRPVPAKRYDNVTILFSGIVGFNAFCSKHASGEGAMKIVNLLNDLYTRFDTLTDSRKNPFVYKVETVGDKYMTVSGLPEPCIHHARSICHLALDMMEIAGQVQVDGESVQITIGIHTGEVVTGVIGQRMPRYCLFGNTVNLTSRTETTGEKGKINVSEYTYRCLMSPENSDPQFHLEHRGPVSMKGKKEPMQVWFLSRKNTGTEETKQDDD
T1 sequence (Q02108 1-690): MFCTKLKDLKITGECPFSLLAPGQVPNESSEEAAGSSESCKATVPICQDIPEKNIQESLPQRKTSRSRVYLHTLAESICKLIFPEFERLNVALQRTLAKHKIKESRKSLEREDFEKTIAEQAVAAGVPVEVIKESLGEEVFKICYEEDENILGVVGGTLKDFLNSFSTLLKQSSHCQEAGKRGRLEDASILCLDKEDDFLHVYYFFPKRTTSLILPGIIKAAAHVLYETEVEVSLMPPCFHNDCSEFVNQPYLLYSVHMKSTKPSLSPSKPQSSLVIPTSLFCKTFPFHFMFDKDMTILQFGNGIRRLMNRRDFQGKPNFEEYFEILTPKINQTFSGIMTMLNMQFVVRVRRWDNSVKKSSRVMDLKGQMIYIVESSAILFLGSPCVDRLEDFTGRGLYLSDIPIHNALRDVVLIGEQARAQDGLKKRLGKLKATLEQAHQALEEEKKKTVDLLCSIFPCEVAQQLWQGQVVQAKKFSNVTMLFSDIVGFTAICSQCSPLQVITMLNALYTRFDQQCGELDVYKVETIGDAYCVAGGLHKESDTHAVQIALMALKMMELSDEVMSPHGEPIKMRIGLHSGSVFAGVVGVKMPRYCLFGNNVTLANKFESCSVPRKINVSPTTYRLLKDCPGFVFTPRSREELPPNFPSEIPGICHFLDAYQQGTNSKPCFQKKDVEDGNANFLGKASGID
Test: sGC-HEK-cGMP assay (run with SNP incubation)
Format: cell-based
Settings: for Emax: Table 3A, 10 μM SNP, 100% = 30 μM BAY 41-2272 with 10 μM SNP, read-out: HEK assay Emax-unconstrained (Percent); for HEK MEC-10: concentration that would elicit 10% of the Emax in the presence of 10 μM SNP; for HEK MEC-10 / EC50: Table 3D; for EC50: in the presence of 10 μM SNP
Protocol: Biological Activity Measurement by the sGC-HEK-cGMP Assay
(Assay Run with SNP Incubation)
Human embryonic kidney cells (HEK293), endogenously expressing soluble guanylate cyclase (sGC), were used to evaluate the activity of test compounds. Compounds stimulating the sGC receptor should cause an increase in the intracellular concentration of cGMP. HEK 293 cells were seeded in Dulbecco's Modification of Eagle's Medium supplemented with fetal bovine serum (10% final) and L-glutamine (2 mM final) in a 2004 volume at a density of 1×10^5 cells/well in a poly-D-lysine coated 96 well flat bottom plate and grown overnight at 37° C. Medium was aspirated and cells were washed with 1× Hank's Buffered Saline Salt Solution (2004). Cells were then incubated for 15 minutes at 37° C. with 0.5 mM 3-isobutyl-1-methylxanthine (2004). Test article and sodium nitroprusside were then added to the assay mixture (24 each) and incubated at 37° C. for 10 minutes. After the 10 minute incubation, the assay mixture was aspirated and 0.1M HCl (2004) was added to the cells. The plate was incubated at 4° C. for 30 minutes in the 0.1M HCl to stop the reaction and lysed the cells. The plates were then centrifuged at 1,200 g for 5 minutes at room temperature. Supernatants were collected and transferred to a new flat bottom 96 well plate for analysis. Vehicle controls were carried out using DMSO (1%). A known sGC stimulator, BAY 41-2272, was used as the positive control. Samples were diluted with an equal volume of 1 M Ammonium Acetate (pH 7) to neutralize samples for better chromatography. A 2×cGMP standard curve was prepared in 0.1 M HCl and then diluted with an equal volume of 1 M Ammonium Acetate, with the following final concentrations in nM: 1024, 512, 256, 128, 64, 32, 16, 8, 4, 2, 1.cGMP concentrations were determined from each sample using the LC/MS conditions (Table 2 below) and calculated standard curve. EC50 values were calculated from concentration-response curves generated with GraphPad Prism Software.

[1] = top of concentration-response curve not fitted to 100%
[2] = top of concentration-response curve not fitted to 100%, read-out: HEK assay EC50-unconstrained

SMILES | Emax [1] | HEK MEC-10 | EC50 (read-out: HEK assay EC50) | EC50 [2]
O=c1[nH]c(-c2nn(Cc3ccccc3F)c(-c3ccon3)c2F)ncc1F [Compound 3] | ≥ 120% | D (1 to <10 μM) | < 20 µM | 10 to 50 µM
Oc1nc(-c2cc(-c3ccon3)n(Cc3ccccc3F)n2)ncc1Sc1ccc(F)cc1 [Compound 4, 2-(1-(2-fluorobenzyl)-5-(isoxazol-3-yl)-1H-pyrazol-3-yl)-5-(4-fluorophenylthio)pyrimidin-4-ol] | 60 to 80% | C (0.1 to <1 μM) | < 20 µM | 1 to 5 µM
CC1(C(=O)Oc2cnc(-c3cc(-c4ccon4)n(Cc4ccccc4F)n3)nc2N)CC1 [Compound 5] | 80 to 100% | C (0.1 to <1 μM) | < 20 µM | 10 to 50 µM
Oc1nc(-c2cc(-c3ccon3)n(Cc3ccccc3F)n2)ncc1Sc1ccc(Cl)cc1 [Compound 6, 5-(4-chlorophenylthio)-2-(1-(2-fluorobenzyl)-5-(isoxazol-3-yl)-1H-pyrazol-3-yl)pyrimidin-4-ol] | 60 to 80% | C (0.1 to <1 μM) | < 20 µM | 1 to 5 µM
Oc1nc(-c2cc(-c3ncco3)n(Cc3ccccc3F)n2)ncc1Sc1ccccn1 [Compound 7, 2-(1-(2-fluorobenzyl)-5-(oxazol-2-yl)-1H-pyrazol-3-yl)-5-(pyridin-2-ylthio)pyrimidin-4-ol] | 60 to 80% | B (0.01 to <0.1 μM) | < 20 µM | 0.01 to 0.5 µM
Nc1nc(-c2cc(-c3ccon3)n(Cc3ccccc3F)n2)ncc1NC(=O)C1(c2ccccc2F)CC1 [Compound 9] | 60 to 80% | B (0.01 to <0.1 μM) | < 20 µM | 0.01 to 0.5 µM
Nc1nc(-c2cc(-c3ccon3)n(Cc3ccccc3F)n2)ncc1NC(=O)C1(c2cccc(F)c2)CC1 [Compound 11] | 60 to 80% | B (0.01 to <0.1 μM) | < 20 µM | 0.01 to 0.5 µM
COc1ccc(C2(C(=O)Nc3cnc(-c4cc(-c5ccon5)n(Cc5ccccc5F)n4)nc3N)CC2)cc1 [Compound 12] | 60 to 80% | B (0.01 to <0.1 μM) | < 20 µM | 0.01 to 0.5 µM
Nc1nc(-c2cc(-c3ccon3)n(Cc3ccccc3F)n2)ncc1NC(=O)C1(c2ccc(F)cc2)CC1 [Compound 13] | 80 to 100% | B (0.01 to <0.1 μM) | < 20 µM | 0.01 to 0.5 µM
CN(C1CC1)S(=O)(=O)c1cnc(-c2cc(-c3ccon3)n(Cc3ccccc3F)n2)[nH]c1=O [Compound 14] | 40 to 60% | B (0.01 to <0.1 μM) | < 20 µM | 0.01 to 0.5 µM
Nc1ccnc(-c2cc(-c3ccon3)n(Cc3c(F)ccc(F)c3F)n2)n1 [Compound 15] | 20 to 40% | D (1 to <10 μM) | 40 to 60 µM | 1 to 5 µM
CN(Cc1ccccc1)S(=O)(=O)c1cnc(-c2cc(-c3ccon3)n(Cc3ccccc3F)n2)[nH]c1=O [Compound 16] | 60 to 80% | C (0.1 to <1 μM) | < 20 µM | 0.5 to 1 µM
Oc1nc(-c2cc(-c3ccon3)n(Cc3ccccc3F)n2)ncc1Sc1ccc(C(F)(F)F)cc1 [Compound 17, 2-(1-(2-fluorobenzyl)-5-(isoxazol-3-yl)-1H-pyrazol-3-yl)-5-(4-(trifluoromethyl)phenylthio)pyrimidin-4-ol] |  |  | 1200 to 7000 µM | 
Oc1nc(-c2cc(-c3ccon3)n(Cc3ccccc3F)n2)ncc1Sc1ccccn1 [Compound 18, 2-(1-(2-fluorobenzyl)-5-(isoxazol-3-yl)-1H-pyrazol-3-yl)-5-(pyridin-2-ylthio)pyrimidin-4-ol] | 60 to 80% | C (0.1 to <1 μM) | 20 to 40 µM | 10 to 50 µM
O=c1[nH]c(-c2cc(-c3ccon3)n(Cc3c(F)ccc(F)c3F)n2)ncc1F [Compound 19, 5-fluoro-2-(5-(isoxazol-3-yl)-1-(2,3,6-trifluorobenzyl)-1H-pyrazol-3-yl)pyrimidin-4-ol] | 20 to 40% | D (1 to <10 μM) | 40 to 60 µM | 0.5 to 1 µM
Oc1nc(-c2cc(-c3ncco3)n(Cc3ccccc3F)n2)ncc1Sc1ccccc1 [Compound 20, 2-(1-(2-fluorobenzyl)-5-(oxazol-2-yl)-1H-pyrazol-3-yl)-5-(phenylthio)pyrimidin-4-ol] | 40 to 60% | C (0.1 to <1 μM) | 20 to 40 µM | 1 to 5 µM
O=c1[nH]c(-c2cc(-c3ccon3)n(Cc3ccccc3F)n2)ncc1S(=O)(=O)N1CCCC1 [Compound 21] | 60 to 80% | C (0.1 to <1 μM) | < 20 µM | 0.5 to 1 µM
CN(C)S(=O)(=O)c1cnc(-c2cc(-c3ccon3)n(Cc3ccccc3F)n2)[nH]c1=O [Compound 22] | 80 to 100% | D (1 to <10 μM) | < 20 µM | 1 to 5 µM
Fc1cnccc1Cn1nc(-c2ncccn2)cc1-c1ccon1 [Compound 23] |  | E (10 to 50 μM) |  | 
CN(c1ccccc1)S(=O)(=O)c1cnc(-c2cc(-c3ccon3)n(Cc3ccccc3F)n2)[nH]c1=O [Compound 25] | 60 to 80% | C (0.1 to <1 μM) | < 20 µM | 0.5 to 1 µM
Fc1ccccc1Cn1nc(-c2ncc(F)c(Cl)n2)cc1-c1ccon1 [Compound 30, 3-(3-(4-chloro-5-fluoropyrimidin-2-yl)-1-(2-fluorobenzyl)-1H-pyrazol-5-yl)isoxazole] | 60 to 80% | D (1 to <10 μM) | < 20 µM | 1 to 5 µM
N#CC1(C(=O)Nc2cnc(-c3cc(-c4ccon4)n(Cc4cccc(F)c4F)n3)nc2N)CC1 [Compound 36] | 40 to 60% | D (1 to <10 μM) | < 20 µM | 0.01 to 0.5 µM
Nc1ccnc(-c2cc(-c3ccon3)n(Cc3cccc(F)c3F)n2)n1 [Compound 37] | 80 to 100% | C (0.1 to <1 μM) | 20 to 40 µM | 10 to 50 µM
Oc1nc(-c2cc(-c3cocn3)n(Cc3ccccc3F)n2)ncc1F [Compound 48] | 60 to 80% | C (0.1 to <1 μM) | < 20 µM | 1 to 5 µM
Fc1ccccc1Cn1nc(-c2ncc(Br)c(OCc3ccccc3)n2)cc1-c1ccon1 [Compound 50] |  |  | 1200 to 7000 µM | 
